Measured values: patent publication US8809345B2, “6-cycloalkyl-pyrazolopyrimidinones for the treatment of CNS disorders” (Boehringer Ingelheim International GmbH, priority 2011, dated 2014)

What was measured:
human PDE9A = human PDE9A (Homo sapiens, UniProt O76083); conditions: isolated enzyme, concentrations of up to 100 micromolar (μM); cited from earlier work
Murine PDE9A = target: T1, Murine PDE9A (Mus musculus, UniProt O70628); conditions: concentrations below 200 micromolar; cited from earlier work
T1 sequence (O70628 1-534): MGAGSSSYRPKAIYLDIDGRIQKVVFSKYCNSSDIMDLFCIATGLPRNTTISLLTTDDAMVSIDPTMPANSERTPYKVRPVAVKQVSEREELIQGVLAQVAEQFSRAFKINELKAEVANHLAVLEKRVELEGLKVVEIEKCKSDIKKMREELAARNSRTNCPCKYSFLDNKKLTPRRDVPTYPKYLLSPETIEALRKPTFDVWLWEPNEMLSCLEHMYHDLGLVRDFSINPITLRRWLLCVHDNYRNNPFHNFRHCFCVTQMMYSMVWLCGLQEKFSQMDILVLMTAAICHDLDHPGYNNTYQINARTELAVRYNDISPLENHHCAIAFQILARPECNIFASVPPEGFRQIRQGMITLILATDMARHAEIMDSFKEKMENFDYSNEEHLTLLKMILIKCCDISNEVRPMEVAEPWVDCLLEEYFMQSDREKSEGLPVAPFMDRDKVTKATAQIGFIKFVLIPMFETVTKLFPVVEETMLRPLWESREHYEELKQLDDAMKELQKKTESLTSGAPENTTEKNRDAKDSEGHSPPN

PDE1C = PDE1C (Homo sapiens, UniProt Q14123); experiment: PDE1C assay, run analogously to the PDE9A2 assay; type: biochemical; conditions: ratio PDE1C vs PDE9A2
Text: The reaction can be stopped by applying the same inhibitor as the one that is outlined above (1-(2-Chlorophenyl)-6-[(2R)-3,3,3-trifluoro-2-methyl-propyl]-1,5-dihydro-4H-pyrazolo[3,4-d]pyrimidine-4-one).
(§1) IC50 can be calculated with GraphPadPrism or other suitable software setting the positive control as 100 and the negative control as 0. For calculation of IC50, dilutions of the test compounds […] are selected and tested following the aforementioned protocol.
Selectivity is the ratio (IC50 for PDE1C inhibition [nanomolar (nM)])/(IC50 for PDE9A2 inhibition [nanomolar (nM)]).

human PDE9A2 = target: T2, human PDE9A2 (Homo sapiens, UniProt O76083); experiment: PDE9A2 enzymatic activity assay (scintillation proximity assay); type: biochemical; conditions: SPA, lysate of SF9 cells expressing human PDE9A2, 20 nanomolar cGMP
T2 construct: made in house; host or cells: Sf9 insect cells (crude lysate, not purified)
T2 sequence (O76083 1-533 isoform O76083-2): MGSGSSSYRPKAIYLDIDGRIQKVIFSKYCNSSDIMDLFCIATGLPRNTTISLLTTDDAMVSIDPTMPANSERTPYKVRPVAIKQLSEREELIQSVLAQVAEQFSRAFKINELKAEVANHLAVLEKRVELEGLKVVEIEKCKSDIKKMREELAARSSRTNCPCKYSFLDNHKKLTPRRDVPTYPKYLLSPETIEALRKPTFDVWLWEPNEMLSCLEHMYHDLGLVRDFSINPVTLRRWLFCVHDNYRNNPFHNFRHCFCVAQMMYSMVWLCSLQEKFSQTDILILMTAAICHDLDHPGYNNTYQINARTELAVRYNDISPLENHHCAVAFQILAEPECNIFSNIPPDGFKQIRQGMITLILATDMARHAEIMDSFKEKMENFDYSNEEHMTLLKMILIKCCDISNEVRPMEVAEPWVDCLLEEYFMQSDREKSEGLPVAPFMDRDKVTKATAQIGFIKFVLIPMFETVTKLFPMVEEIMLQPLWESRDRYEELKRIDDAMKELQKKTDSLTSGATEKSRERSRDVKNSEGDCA
Method: The total protein amount included in the assay varied upon infection and production efficacy of the SF9 cells and lay in the range of 0.1-100 ng.
The assays were run in 384-well format. The test reagents as well as the enzyme and the substrate were diluted in assay buffer. The assay buffer contained 50 mM Tris, 8.3 mM MgCl2, 1.7 mM EGTA, 0.1% BSA, 0.05% Tween 20; the pH of assay buffer was adjusted to 7.5.
as §1

Chain of human PDE9A (O76083 whole entry): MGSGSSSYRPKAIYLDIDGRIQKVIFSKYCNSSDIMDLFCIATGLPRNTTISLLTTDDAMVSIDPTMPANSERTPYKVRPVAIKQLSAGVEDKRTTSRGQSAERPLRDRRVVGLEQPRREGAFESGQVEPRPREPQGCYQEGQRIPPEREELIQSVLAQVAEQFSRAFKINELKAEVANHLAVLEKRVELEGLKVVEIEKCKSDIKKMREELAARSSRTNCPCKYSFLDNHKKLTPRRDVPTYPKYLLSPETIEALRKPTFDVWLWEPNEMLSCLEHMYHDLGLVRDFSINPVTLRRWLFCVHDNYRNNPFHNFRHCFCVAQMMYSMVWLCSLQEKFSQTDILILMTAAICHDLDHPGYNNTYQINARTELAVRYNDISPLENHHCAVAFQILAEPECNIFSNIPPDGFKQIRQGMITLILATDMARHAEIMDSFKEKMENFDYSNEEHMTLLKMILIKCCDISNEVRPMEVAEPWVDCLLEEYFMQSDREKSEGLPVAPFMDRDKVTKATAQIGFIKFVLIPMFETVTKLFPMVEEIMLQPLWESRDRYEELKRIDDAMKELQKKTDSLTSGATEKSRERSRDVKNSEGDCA

Selectivity (IC50 for PDE1C inhibition / IC50 for PDE9A2 inhibition) (PDE1C)	IC50 (human PDE9A2)	Compound	inhibition of human PDE9A (human PDE9A)	inhibition of murine PDE9A (Murine PDE9A)
		OCCN(CCO)c1nc(N2CCCCC2)c2nc(N(CCO)CCO)nc(N3CCCCC3)c2n1 [dipyridamole]	no inhibition	
		CC(C)Cn1c(=O)n(C)c(=O)c2[nH]cnc21 [IBMX]	no inhibition	not inhibited
123	6 nM	O=c1[nH]c([C@@H]2CC[C@H]2c2cn3ccccc3n2)nc2c1cnn2C1CCC(F)(F)CC1 (racemic) [Example 4]		
		COc1ccc(C2CNC(=O)C2)cc1OC1CCCC1 (stereo not shown) [rolipram]	no inhibition	
		CCOC(=O)C1=C[C@]2(CC)CCCN3CCc4c(n1c1ccccc41)[C@@H]32 [vinpocetine]	no inhibition	
40	10 nM	O=c1[nH]c([C@@H]2CC[C@H]2c2cn3ccc(Cl)cc3n2)nc2c1cnn2C1CCC(F)(F)CC1 (racemic) [Example 5]		
		CC(=O)Nc1ccc(-c2c[nH]c(=O)cn2)cc1 [SKF94120]	no inhibition	
